By IC50 is commonly meant the point on the concentration scale where inhibition reaches its midpoint.

The text below walks through data of patent US20240308995A1, “O-GLYCOPROTEIN-2-ACETAMIDO-2-DEOXY-3-D-GLUCOPYRANOSIDASE INHIBITORS” (BIOGEN MA INC., priority 2018, published 2024).

Data set [1] has as its target Recombinant full length human OGA enzyme (Homo sapiens (Human), UniProt O60502). The data set can be described thus: OGA Enzyme Inhibition Biochemical Assay. Conditions: 1 nM OGA, 100 μM 4-MUGlcNAc, pH 6.4. The method in brief: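 Full-length recombinant human OGA with fluorogenic 4-MUGlcNAc in McIlvaine buffer pH 6.4, 0.01% BSA; 90 min at room temperature, glycine pH 10 quench, fluorescence Ex 355/Em 460 nm. 10-point, 4-fold dilution from 20 μM; 4-parameter variable-slope fit.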

In data set [2] the target is OGA (S400 O-GLCNAC), HEK-293T cells transfected with Tau-V5 (Homo sapiens (Human), UniProt O60502). The experiment in a line: Cellular OGA-Tau MSD Assay. It is filed as cell-based. Conditions: HEK-293T cells, Tau-S400-GlcNAc MSD readout. The method in brief: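 HEK-293T cells transfected with OGA and Tau-V5 plasmids were treated overnight at 37° C with a 10-point, 3-fold titration from 1 uM. Lysates went onto V5-antibody MSD plates to capture Tau, probed with a Tau O-GlcNAc antibody and read by electrochemiluminescence; IC50 from a 4-parameter fit.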

The test system of the next data set is P-gp (MDR1). The data set can be described thus: MDR1-MDCK Efflux Ratio Assay. It is filed as in vitro ADME. Conditions: dog, MDCK-MDR1, pH 7.4, MDR1-MDCK cells, 2 hr, pH 7.4; read-out: MDR1-MDCK Efflux Ratio (B-A/A-B). The gist of the method:
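Bidirectional (apical↔basolateral) transport across confluent MDR1-MDCK monolayers in HBSS/10 mM HEPES pH 7.4, receiver buffer with 1% BSA; 2 hr at 37° C, 5% CO2. Donor sampled at 0 and 120 min, receiver at 120 min, quantified by LC-MS/MS in triplicate. Papp, efflux ratio and percent recovery calculated.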

Data set [3] can be described thus: Rat Liver Microsome Stability Assay. It is filed as in vitro ADME. Conditions: rat liver microsomes, 1 uM compound. Background: Liver microsomes are vesicles of endoplasmic reticulum, rich in cytochrome P450 enzymes.

Sequence of OGA (S400 O-GLCNAC), HEK-293T cells transfected with Tau-V5 (O60502 whole entry): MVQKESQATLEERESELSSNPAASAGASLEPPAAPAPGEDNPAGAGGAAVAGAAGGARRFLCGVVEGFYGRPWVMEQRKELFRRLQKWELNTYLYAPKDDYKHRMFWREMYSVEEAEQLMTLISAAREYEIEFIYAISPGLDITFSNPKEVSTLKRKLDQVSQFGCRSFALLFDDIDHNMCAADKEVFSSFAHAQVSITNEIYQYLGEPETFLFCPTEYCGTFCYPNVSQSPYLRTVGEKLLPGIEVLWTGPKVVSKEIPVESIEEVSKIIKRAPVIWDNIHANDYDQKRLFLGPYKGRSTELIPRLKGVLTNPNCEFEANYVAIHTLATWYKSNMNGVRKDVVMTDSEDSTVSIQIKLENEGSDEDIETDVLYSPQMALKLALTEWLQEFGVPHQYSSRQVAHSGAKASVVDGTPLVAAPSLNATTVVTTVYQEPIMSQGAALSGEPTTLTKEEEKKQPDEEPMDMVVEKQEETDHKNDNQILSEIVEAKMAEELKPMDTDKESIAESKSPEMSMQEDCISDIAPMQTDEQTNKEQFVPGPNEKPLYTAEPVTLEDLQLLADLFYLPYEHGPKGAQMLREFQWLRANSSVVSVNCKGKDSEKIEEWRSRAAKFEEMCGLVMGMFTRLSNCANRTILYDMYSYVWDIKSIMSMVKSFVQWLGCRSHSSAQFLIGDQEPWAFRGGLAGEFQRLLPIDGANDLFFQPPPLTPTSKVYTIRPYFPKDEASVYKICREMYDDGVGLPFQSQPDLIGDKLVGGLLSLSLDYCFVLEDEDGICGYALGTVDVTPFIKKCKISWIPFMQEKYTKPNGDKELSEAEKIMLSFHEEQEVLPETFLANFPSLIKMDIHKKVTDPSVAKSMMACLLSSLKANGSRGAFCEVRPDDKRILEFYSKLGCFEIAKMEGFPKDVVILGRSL
Sequence of Recombinant full length human OGA enzyme (O60502 whole entry): as above

As to `CC(=O)Nc1ncc(CN2C[C@@H](Oc3cc(C)nc(C)c3)C[C@@H]2C)s1` [Example 1-62, N-(5-(((2S,4S)-4-((2,6-dimethylpyridin-4-yl)oxy)-2-methylpyrrolidin-1-yl)methyl)thiazol-2-yl)acetamide], the IC50 was determined as 26 nM in data set [1] and 89 nM in data set [2]. Besides, in the data set with P-gp (MDR1), the efflux ratio at 2 h worked out at 65. Besides, the “RLM % Qh (%)” value in data set [3] was 32%.
Consider `CC(=O)Nc1ncc(CN2C[C@@H](Oc3cc(C)nc(C)c3)C[C@H]2C)s1` [Example 1-63, N-(5-(((2R,4S)-4-((2,6-dimethylpyridin-4-yl)oxy)-2-methylpyrrolidin-1-yl)methyl)thiazol-2-yl)acetamide], for which the values for the concentration for half-maximal inhibition (IC50) in data set [1] and in data set [2] were 420 nM and greater than 1000 nM, respectively. The efflux ratio at 2 h with P-gp (MDR1) came out at 45.3. Further, the “RLM % Qh (%)” value in data set [3] turned out to be 16%.
The corresponding values for `CC(=O)Nc1ncc(CN2CCC[C@H](Oc3cc(C)nc(C)c3)C2)s1` [Example 1-64, (S)—N-(5-((3-((2,6-dimethylpyridin-4-yl)oxy)piperidin-1-yl)methyl)thiazol-2-yl)acetamide] are 23 nM, 31 nM, 35.3 and 67%.
`CC(=O)Nc1ncc(CN2CCC[C@@H](Oc3cc(C)nc(C)c3)C2)s1` [Example 1-65, (R)—N-(5-((3-((2,6-dimethylpyridin-4-yl)oxy)piperidin-1-yl)methyl)thiazol-2-yl)acetamide]: the IC50 in data set [1] is 2.1 nM; in data set [2] it was 18 nM. In addition, the efflux ratio at 2 h in the data set with P-gp (MDR1) came to 17. Besides, in data set [3], the “RLM % Qh (%)” value was 85%.
As to `COc1ccc(O[C@@H]2C[C@H](C)N(Cc3cnc(NC(C)=O)s3)C2)nn1` [Example 1-68, N-(5-(((2S,4R)-4-((6-methoxypyridazin-3-yl)oxy)-2-methylpyrrolidin-1-yl)methyl)thiazol-2-yl)acetamide], the IC50 in data set [1] was less than 1 nM; in data set [2], 2 nM. In addition, the efflux ratio at 2 h with P-gp (MDR1) worked out at 28.6. The “RLM % Qh (%)” value in data set [3] came out at 34%.
The corresponding values for `CC(=O)Nc1ncc(CN2C[C@H](Oc3cnc(C)cn3)C[C@@H]2C)s1` [Example 1-69, N-(5-(((2S,4R)-2-methyl-4-((5-methylpyrazin-2-yl)oxy)pyrrolidin-1-yl)methyl)thiazol-2-yl)acetamide] are less than 1 nM, 3 nM, 6.1 and 59%.
The corresponding values for `COc1ncnc(O[C@@H]2C[C@H](C)N(Cc3cnc(NC(C)=O)s3)C2)c1C` [Example 1-71, N-(5-(((2S,4R)-4-((6-methoxy-5-methylpyrimidin-4-yl)oxy)-2-methylpyrrolidin-1-yl)methyl)thiazol-2-yl)acetamide] are 1.7 nM, 16 nM, 3.5 and 76%.
The corresponding values for `CC(=O)Nc1ncc(CN2C[C@H](Oc3cc(C)ncc3C)C[C@@H]2C)s1` [Example 1-72, N-(5-(((2S,4R)-4-((2,5-dimethylpyridin-4-yl)oxy)-2-methylpyrrolidin-1-yl)methyl)thiazol-2-yl)acetamide] are 7.2 nM, 8 nM, 55.1 and 64%.
Consider `COc1cnc(O[C@@H]2C[C@H](C)N(Cc3cnc(NC(C)=O)s3)C2)cn1` [Example 1-73, N-(5-(((2S,4R)-4-((5-methoxypyrazin-2-yl)oxy)-2-methylpyrrolidin-1-yl)methyl)thiazol-2-yl)acetamide], for which the half-maximal inhibitory concentration (IC50) in data set [1] is less than 1 nM; in data set [2] it was 3 nM. Further, the efflux ratio at 2 h in the data set on P-gp (MDR1) stood at 2.9. Moreover, the “RLM % Qh (%)” value in data set [3] came to 57%.
`COc1nc(C)cc(O[C@@H]2C[C@H](C)N(Cc3cnc(NC(C)=O)s3)C2)n1` [Example 1-75, N-(5-(((2S,4R)-4-((2-methoxy-6-methylpyrimidin-4-yl)oxy)-2-methylpyrrolidin-1-yl)methyl)thiazol-2-yl)acetamide]: the IC50 in data set [1] was less than 1 nM; in data set [2], 2 nM. In addition, the efflux ratio at 2 h with P-gp (MDR1) was 6.7. Moreover, the “RLM % Qh (%)” value in data set [3] is 58%.
For `CC(=O)Nc1ncc(CN2C[C@H](Oc3cc(C(C)=O)ncn3)C[C@@H]2C)s1` [Example 1-76] the same measures were 2.6 nM, 25 nM, 6 and 65%.
For `CC(=O)Nc1ncc(CN2C[C@H](Oc3cc(F)ncn3)C[C@@H]2C)s1` [Example 1-78, N-(5-(((2S,4R)-4-((6-fluoropyrimidin-4-yl)oxy)-2-methylpyrrolidin-1-yl)methyl)thiazol-2-yl)acetamide] the same measures were 2.4 nM, 6 nM, 4.1 and 47%.
The corresponding values for `CC(=O)Nc1ncc(CN2C[C@H](Oc3ncc(OC(F)F)cn3)C[C@@H]2C)s1` [Example 1-80, N-(5-(((2S,4R)-4-((5-(difluoromethoxy)pyrimidin-2-yl)oxy)-2-methylpyrrolidin-1-yl)methyl)thiazol-2-yl)acetamide] are 1.2 nM, less than 1 nM, 18.1 and 65%.
For the molecule `CC(=O)Nc1ncc(CN2C[C@H](Oc3ccnc(C)c3)C[C@@H]2C)s1` [Example 1-82, N-(5-(((2S,4R)-2-methyl-4-((2-methylpyridin-4-yl)oxy)pyrrolidin-1-yl)methyl)thiazol-2-yl)acetamide], the 50% inhibitory concentration (IC50) is less than 1 nM in data set [1] and 2 nM in data set [2]. Moreover, the efflux ratio at 2 h with P-gp (MDR1) was 16.7. Moreover, the “RLM % Qh (%)” value in data set [3] is 38%.
The corresponding values for `CC(=O)Nc1ncc(CN2C[C@H](Oc3ccc(F)nn3)C[C@@H]2C)s1` [Example 1-83, N-(5-(((2S,4R)-4-((6-fluoropyridazin-3-yl)oxy)-2-methylpyrrolidin-1-yl)methyl)thiazol-2-yl)acetamide] are less than 1 nM, 1 nM, 38.6 and 16%.
The corresponding values for `CC(=O)Nc1nc(F)c(CN2C[C@H](Oc3ccc(F)nc3)C[C@@H]2C)s1` [Example 1-85, N-(4-fluoro-5-(((2S,4R)-4-((6-fluoropyridin-3-yl)oxy)-2-methylpyrrolidin-1-yl)methyl)thiazol-2-yl)acetamide] are less than 1 nM, 2 nM, 3.8 and 60%.
For the molecule `CC(=O)Nc1ncc(CN2C[C@H](Oc3ncc(F)cn3)C[C@@H]2C)s1` [Example 1-86, N-(5-(((2S,4R)-4-((5-fluoropyrimidin-2-yl)oxy)-2-methylpyrrolidin-1-yl)methyl)thiazol-2-yl)acetamide], the IC50 in data set [1] and in data set [2] was less than 1 nM each time. The efflux ratio at 2 h in the data set on P-gp (MDR1) was found to be 11.2. Moreover, the “RLM % Qh (%)” value in data set [3] is given as 26%.
For `CC(=O)Nc1ncc(CN2C[C@H](Oc3cc(C)c(F)cn3)C[C@@H]2C)s1` [Example 1-87, N-(5-(((2S,4R)-4-((5-fluoro-4-methylpyridin-2-yl)oxy)-2-methylpyrrolidin-1-yl)methyl)thiazol-2-yl)acetamide], the IC50 in data set [1] and in data set [2] was less than 1 nM in each case. Besides, the efflux ratio at 2 h in the data set on P-gp (MDR1) came out at 1.8. Besides, the “RLM % Qh (%)” value in data set [3] came to 81%.
Turning to `COc1cncc(O[C@@H]2C[C@H](C)N(Cc3sc(NC(C)=O)nc3F)C2)n1` [Example 1-88, N-(4-fluoro-5-(((2S,4R)-4-((6-methoxypyrazin-2-yl)oxy)-2-methylpyrrolidin-1-yl)methyl)thiazol-2-yl)acetamide], the results for the IC50 in data set [1] and in data set [2] were less than 1 nM and 1 nM, respectively. Besides, the efflux ratio at 2 h in the data set with P-gp (MDR1) stood at 4.7. The “RLM % Qh (%)” value in data set [3] worked out at 98%.
For `COc1cnc(O[C@@H]2C[C@H](C)N(Cc3sc(NC(C)=O)nc3F)C2)nc1` [Example 1-89, N-(4-fluoro-5-(((2S,4R)-4-((5-methoxypyrimidin-2-yl)oxy)-2-methylpyrrolidin-1-yl)methyl)thiazol-2-yl)acetamide], the 50% inhibitory concentration (IC50) in data set [1] and in data set [2] was less than 1 nM throughout. Besides, in the data set with P-gp (MDR1), the efflux ratio at 2 h was 19.7. Further, in data set [3], the “RLM % Qh (%)” value was determined as 66%.
Regarding `CC(=O)Nc1nc(F)c(CN2C[C@H](Oc3ccc(Cl)cn3)C[C@@H]2C)s1` [Example 1-90, N-(5-(((2S,4R)-4-((5-chloropyridin-2-yl)oxy)-2-methylpyrrolidin-1-yl)methyl)-4-fluorothiazol-2-yl)acetamide], the IC50 in data set [1] and in data set [2] was less than 1 nM throughout. In the data set on P-gp (MDR1), the efflux ratio at 2 h is 1.1. Besides, the “RLM % Qh (%)” value in data set [3] is 88%.
In the case of `COc1ccnc(O[C@@H]2C[C@H](C)N(Cc3sc(NC(C)=O)nc3F)C2)n1` [Example 1-91, N-(4-fluoro-5-(((2S,4R)-4-((4-methoxypyrimidin-2-yl)oxy)-2-methylpyrrolidin-1-yl)methyl)thiazol-2-yl)acetamide], the IC50 in data set [1] and in data set [2] was less than 1 nM throughout. In the data set on P-gp (MDR1), the efflux ratio at 2 h is 9.9. Further, the “RLM % Qh (%)” value in data set [3] is on record as 81%.
